Patent US9708314B2, “Heterocyclic amide compound” (NISSAN CHEMICAL INDUSTRIES, LTD., priority 2013, dated 2017)

Experiments:
Format in all cases: in vivo
Cyperus difformis = assay: Test Example 3: herbicidal effect by application to foliage (Wagner pot, water depth 0.1-0.5 cm); details: Nineteenth Table; application to foliage; application herbicide amount 320 g/ha
How it was run: (§1)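 Scores (0–5) reflect herbicidal ratio three weeks after a foliar spray: 0 is 5% or less, 5 is 90% or more. Plants had grown 14 days in alluvial soil pots in a 25–30 °C greenhouse before treatment with water-diluted emulsion at a set g/ha.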

Leptochloa chinensis = assay: as above; details: Nineteenth Table; application to foliage; application herbicide amount 320 g/ha
How it was run: as §1

[1] = test system: Echinochloa crus-galli var. crus-galli; assay: as above; details: Nineteenth Table; application to foliage; application herbicide amount 320 g/ha
How it was run: as §1

Monochoria vaginalis [2] = assay: Test Example 2: herbicidal activity, application during weed generation in submerged conditions; details: Eighteenth Table; application herbicide amount 320 g/ha
How it was run: (§2)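 Alluvial soil in Wagner pots flooded to 4 cm water depth; seeds sown mixed, grown in greenhouse at 25–30 °C. At one- to two-leaf stage, emulsion diluted with water to the set rate (g/ha) was applied to the water surface. Effect scored 0–5 by herbicidal ratio three weeks later.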

[3] = test system: Echinochloa oryzacola Vasing.; assay: as above; details: Eighteenth Table; application herbicide amount 320 g/ha
How it was run: as §2

Scirpus juncoides [4] = assay: as above; details: Eighteenth Table; application herbicide amount 320 g/ha
How it was run: as §2

[5] = test system: transplanted Oryza sativa; assay: Test Example 1: effect on crop, application before weed generation in submerged conditions; details: Application herbicide amount 320 g/ha; Seventeenth Table
How it was run: (§3)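 Alluvial soil in Wagner pots flooded to 4 cm water depth; weed seeds sown and 2.5 leaf stage rice seedlings transplanted. Emulsion diluted in water applied to water surface on sowing day at stated g/ha. Greenhouse 25° C. to 30° C.; effects scored 0–5 by herbicidal ratio after three weeks.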

Monochoria vaginalis [6] = assay: Test Example 1: herbicidal activity, application before weed generation in submerged conditions; details: Application herbicide amount 320 g/ha; Seventeenth Table
How it was run: as §3

[7] = test system: Echinochloa oryzacola Vasing.; assay: as above; details: Application herbicide amount 320 g/ha; Seventeenth Table
How it was run: as §3

Scirpus juncoides [8] = assay: as above; details: Application herbicide amount 320 g/ha; Seventeenth Table
How it was run: as §3

Cn1nnnc1NC(=O)c1ccc(C(F)(F)F)n2c(SCC(F)(F)F)nnc12 [2-087]
E (herbicidal effect grade) (Cyperus difformis): 5 (Herbicidal ratio of 90% or more (almost completely withered))
D (herbicidal effect grade) (Leptochloa chinensis): 5 (Herbicidal ratio of 90% or more (almost completely withered))
H (herbicidal effect grade) [1]: 5 (Herbicidal ratio of 90% or more (almost completely withered))
C (Monochoria vaginalis) herbicidal ratio grade (Monochoria vaginalis [2]): 3 (Herbicidal ratio of 40% or more and less than 70%)
A (Echinochloa oryzicola Vasing.) herbicidal ratio grade [3]: 4 (Herbicidal ratio of 70% or more and less than 90%)
B (Scirpus juncoides) herbicidal ratio grade (Scirpus juncoides [4]): 4 (Herbicidal ratio of 70% or more and less than 90%)
a: transplanted Oryza sativa (effect on crop grade) [5]: 3 (Herbicidal ratio of 40% or more and less than 70%)
C: Monochoria vaginalis (herbicidal effect grade) (Monochoria vaginalis [6]): 4 (Herbicidal ratio of 70% or more and less than 90%)
A: Echinochloa oryzicola Vasing. (herbicidal effect grade) [7]: 5 (Herbicidal ratio of 90% or more (almost completely withered))
B: Scirpus juncoides (herbicidal effect grade) (Scirpus juncoides [8]): 5 (Herbicidal ratio of 90% or more (almost completely withered))

CC(C)c1nnc2c(C(=O)Nc3nnnn3C)ccc(C(F)(F)C(F)(F)F)n12 [2-049]
E (herbicidal effect grade) (Cyperus difformis): 5 (Herbicidal ratio of 90% or more (almost completely withered))
D (herbicidal effect grade) (Leptochloa chinensis): 5 (Herbicidal ratio of 90% or more (almost completely withered))
H (herbicidal effect grade) [1]: 5 (Herbicidal ratio of 90% or more (almost completely withered))
C (Monochoria vaginalis) herbicidal ratio grade (Monochoria vaginalis [2]): 4 (Herbicidal ratio of 70% or more and less than 90%)
A (Echinochloa oryzicola Vasing.) herbicidal ratio grade [3]: 5 (Herbicidal ratio of 90% or more (almost completely withered))
B (Scirpus juncoides) herbicidal ratio grade (Scirpus juncoides [4]): 5 (Herbicidal ratio of 90% or more (almost completely withered))
a: transplanted Oryza sativa (effect on crop grade) [5]: 3 (Herbicidal ratio of 40% or more and less than 70%)
C: Monochoria vaginalis (herbicidal effect grade) (Monochoria vaginalis [6]): 4 (Herbicidal ratio of 70% or more and less than 90%)
A: Echinochloa oryzicola Vasing. (herbicidal effect grade) [7]: 5 (Herbicidal ratio of 90% or more (almost completely withered))
B: Scirpus juncoides (herbicidal effect grade) (Scirpus juncoides [8]): 5 (Herbicidal ratio of 90% or more (almost completely withered))

C#CCN(C)c1nnc2c(C(=O)Nc3nnnn3C)ccc(C(F)(F)F)n12 [2-094]
E (herbicidal effect grade) (Cyperus difformis): 5 (Herbicidal ratio of 90% or more (almost completely withered))
D (herbicidal effect grade) (Leptochloa chinensis): 5 (Herbicidal ratio of 90% or more (almost completely withered))
H (herbicidal effect grade) [1]: 5 (Herbicidal ratio of 90% or more (almost completely withered))
C (Monochoria vaginalis) herbicidal ratio grade (Monochoria vaginalis [2]): 4 (Herbicidal ratio of 70% or more and less than 90%)
A (Echinochloa oryzicola Vasing.) herbicidal ratio grade [3]: 5 (Herbicidal ratio of 90% or more (almost completely withered))
B (Scirpus juncoides) herbicidal ratio grade (Scirpus juncoides [4]): 5 (Herbicidal ratio of 90% or more (almost completely withered))
a: transplanted Oryza sativa (effect on crop grade) [5]: 4 (Herbicidal ratio of 70% or more and less than 90%)
C: Monochoria vaginalis (herbicidal effect grade) (Monochoria vaginalis [6]): 5 (Herbicidal ratio of 90% or more (almost completely withered))
A: Echinochloa oryzicola Vasing. (herbicidal effect grade) [7]: 5 (Herbicidal ratio of 90% or more (almost completely withered))
B: Scirpus juncoides (herbicidal effect grade) (Scirpus juncoides [8]): 5 (Herbicidal ratio of 90% or more (almost completely withered))

CC(C)c1nnc2c(C(=O)Nc3nnnn3Cc3ccc(Cl)cc3)ccc(C(F)(F)F)n12 [2-093]
E (herbicidal effect grade) (Cyperus difformis): 5 (Herbicidal ratio of 90% or more (almost completely withered))
D (herbicidal effect grade) (Leptochloa chinensis): 2 (Herbicidal ratio of 20% or more and less than 40%)
H (herbicidal effect grade) [1]: 1 (Herbicidal ratio of 5% or more and less than 20%)
C (Monochoria vaginalis) herbicidal ratio grade (Monochoria vaginalis [2]): 3 (Herbicidal ratio of 40% or more and less than 70%)
A (Echinochloa oryzicola Vasing.) herbicidal ratio grade [3]: 2 (Herbicidal ratio of 20% or more and less than 40%)
B (Scirpus juncoides) herbicidal ratio grade (Scirpus juncoides [4]): 4 (Herbicidal ratio of 70% or more and less than 90%)
a: transplanted Oryza sativa (effect on crop grade) [5]: 2 (Herbicidal ratio of 20% or more and less than 40%)
C: Monochoria vaginalis (herbicidal effect grade) (Monochoria vaginalis [6]): 4 (Herbicidal ratio of 70% or more and less than 90%)
A: Echinochloa oryzicola Vasing. (herbicidal effect grade) [7]: 5 (Herbicidal ratio of 90% or more (almost completely withered))
B: Scirpus juncoides (herbicidal effect grade) (Scirpus juncoides [8]): 5 (Herbicidal ratio of 90% or more (almost completely withered))

COc1ccc(Cc2nnc3c(C(=O)Nc4nnnn4C)ccc(C(F)(F)F)n23)cc1 [2-065]
E (herbicidal effect grade) (Cyperus difformis): 5 (Herbicidal ratio of 90% or more (almost completely withered))
D (herbicidal effect grade) (Leptochloa chinensis): 5 (Herbicidal ratio of 90% or more (almost completely withered))
H (herbicidal effect grade) [1]: 5 (Herbicidal ratio of 90% or more (almost completely withered))
C (Monochoria vaginalis) herbicidal ratio grade (Monochoria vaginalis [2]): 4 (Herbicidal ratio of 70% or more and less than 90%)
A (Echinochloa oryzicola Vasing.) herbicidal ratio grade [3]: 5 (Herbicidal ratio of 90% or more (almost completely withered))
B (Scirpus juncoides) herbicidal ratio grade (Scirpus juncoides [4]): 4 (Herbicidal ratio of 70% or more and less than 90%)
a: transplanted Oryza sativa (effect on crop grade) [5]: 2 (Herbicidal ratio of 20% or more and less than 40%)
C: Monochoria vaginalis (herbicidal effect grade) (Monochoria vaginalis [6]): 4 (Herbicidal ratio of 70% or more and less than 90%)
A: Echinochloa oryzicola Vasing. (herbicidal effect grade) [7]: 5 (Herbicidal ratio of 90% or more (almost completely withered))
B: Scirpus juncoides (herbicidal effect grade) (Scirpus juncoides [8]): 4 (Herbicidal ratio of 70% or more and less than 90%)

CCCn1nnnc1NC(=O)c1ccc(C(F)(F)F)n2c(C(C)C)nnc12 [2-090]
E (herbicidal effect grade) (Cyperus difformis): 5 (Herbicidal ratio of 90% or more (almost completely withered))
D (herbicidal effect grade) (Leptochloa chinensis): 4 (Herbicidal ratio of 70% or more and less than 90%)
H (herbicidal effect grade) [1]: 5 (Herbicidal ratio of 90% or more (almost completely withered))
C (Monochoria vaginalis) herbicidal ratio grade (Monochoria vaginalis [2]): 4 (Herbicidal ratio of 70% or more and less than 90%)
A (Echinochloa oryzicola Vasing.) herbicidal ratio grade [3]: 5 (Herbicidal ratio of 90% or more (almost completely withered))
B (Scirpus juncoides) herbicidal ratio grade (Scirpus juncoides [4]): 5 (Herbicidal ratio of 90% or more (almost completely withered))
a: transplanted Oryza sativa (effect on crop grade) [5]: 4 (Herbicidal ratio of 70% or more and less than 90%)
C: Monochoria vaginalis (herbicidal effect grade) (Monochoria vaginalis [6]): 5 (Herbicidal ratio of 90% or more (almost completely withered))
A: Echinochloa oryzicola Vasing. (herbicidal effect grade) [7]: 5 (Herbicidal ratio of 90% or more (almost completely withered))
B: Scirpus juncoides (herbicidal effect grade) (Scirpus juncoides [8]): 5 (Herbicidal ratio of 90% or more (almost completely withered))

CCN(CC)c1nnc2c(C(=O)Nc3nnnn3C)ccc(C(F)(F)F)n12 [2-089]
E (herbicidal effect grade) (Cyperus difformis): 4 (Herbicidal ratio of 70% or more and less than 90%)
D (herbicidal effect grade) (Leptochloa chinensis): 5 (Herbicidal ratio of 90% or more (almost completely withered))
H (herbicidal effect grade) [1]: 4 (Herbicidal ratio of 70% or more and less than 90%)
C (Monochoria vaginalis) herbicidal ratio grade (Monochoria vaginalis [2]): 5 (Herbicidal ratio of 90% or more (almost completely withered))
A (Echinochloa oryzicola Vasing.) herbicidal ratio grade [3]: 4 (Herbicidal ratio of 70% or more and less than 90%)
B (Scirpus juncoides) herbicidal ratio grade (Scirpus juncoides [4]): 4 (Herbicidal ratio of 70% or more and less than 90%)
a: transplanted Oryza sativa (effect on crop grade) [5]: 4 (Herbicidal ratio of 70% or more and less than 90%)
C: Monochoria vaginalis (herbicidal effect grade) (Monochoria vaginalis [6]): 5 (Herbicidal ratio of 90% or more (almost completely withered))
A: Echinochloa oryzicola Vasing. (herbicidal effect grade) [7]: 5 (Herbicidal ratio of 90% or more (almost completely withered))
B: Scirpus juncoides (herbicidal effect grade) (Scirpus juncoides [8]): 5 (Herbicidal ratio of 90% or more (almost completely withered))

CN(c1nnc2c(C(=O)Nc3nnnn3C)ccc(C(F)(F)F)n12)C1CCCCC1 [2-083]
E (herbicidal effect grade) (Cyperus difformis): 5 (Herbicidal ratio of 90% or more (almost completely withered))
D (herbicidal effect grade) (Leptochloa chinensis): 4 (Herbicidal ratio of 70% or more and less than 90%)
H (herbicidal effect grade) [1]: 4 (Herbicidal ratio of 70% or more and less than 90%)
C (Monochoria vaginalis) herbicidal ratio grade (Monochoria vaginalis [2]): 3 (Herbicidal ratio of 40% or more and less than 70%)
A (Echinochloa oryzicola Vasing.) herbicidal ratio grade [3]: 3 (Herbicidal ratio of 40% or more and less than 70%)
B (Scirpus juncoides) herbicidal ratio grade (Scirpus juncoides [4]): 3 (Herbicidal ratio of 40% or more and less than 70%)
a: transplanted Oryza sativa (effect on crop grade) [5]: 2 (Herbicidal ratio of 20% or more and less than 40%)
C: Monochoria vaginalis (herbicidal effect grade) (Monochoria vaginalis [6]): 4 (Herbicidal ratio of 70% or more and less than 90%)
A: Echinochloa oryzicola Vasing. (herbicidal effect grade) [7]: 5 (Herbicidal ratio of 90% or more (almost completely withered))
B: Scirpus juncoides (herbicidal effect grade) (Scirpus juncoides [8]): 5 (Herbicidal ratio of 90% or more (almost completely withered))

CSCCNc1nnc2c(C(=O)Nc3nnnn3C)ccc(C(F)(F)F)n12 [2-080]
E (herbicidal effect grade) (Cyperus difformis): 5 (Herbicidal ratio of 90% or more (almost completely withered))
D (herbicidal effect grade) (Leptochloa chinensis): 5 (Herbicidal ratio of 90% or more (almost completely withered))
H (herbicidal effect grade) [1]: 4 (Herbicidal ratio of 70% or more and less than 90%)
C (Monochoria vaginalis) herbicidal ratio grade (Monochoria vaginalis [2]): 0 (Herbicidal ratio of 5% or less (almost no effect))
A (Echinochloa oryzicola Vasing.) herbicidal ratio grade [3]: 2 (Herbicidal ratio of 20% or more and less than 40%)
B (Scirpus juncoides) herbicidal ratio grade (Scirpus juncoides [4]): 1 (Herbicidal ratio of 5% or more and less than 20%)
a: transplanted Oryza sativa (effect on crop grade) [5]: 2 (Herbicidal ratio of 20% or more and less than 40%)
C: Monochoria vaginalis (herbicidal effect grade) (Monochoria vaginalis [6]): 0 (Herbicidal ratio of 5% or less (almost no effect))
A: Echinochloa oryzicola Vasing. (herbicidal effect grade) [7]: 3 (Herbicidal ratio of 40% or more and less than 70%)
B: Scirpus juncoides (herbicidal effect grade) (Scirpus juncoides [8]): 0 (Herbicidal ratio of 5% or less (almost no effect))
